By pKi is commonly meant the Ki on a negative log10 scale, so that one unit is a factor of ten.

pKi: −log10 of the molar value. Where two headings read alike, the source gives them in different places. Where only a bound is given, the exact number is not on record here.

For assay [1], the target named is human recombinant 5-HT2A receptor (Homo sapiens (Human), UniProt P28223). Description: 5-HT2A receptor binding inhibition test ([3H]-Ketanserin). Conditions: Jump-In HEK cell membrane, 25° C. 1.5 hours. The protocol:
Test Example 1: 5-HT2A Receptor Binding Inhibition Test
(§1) (Each Experimental Condition)
Cell membrane: 15 μg of Jump-In HEK cell membrane (expressing human recombinant 5-HT2A receptor) per well
(§2) Assay buffer: Tris-HCl 50 mmol/L (pH 7.4) containing NaCl 120 mmol/L, MgCl2·6H2O 1 mmol/L, KCl 5 mmol/L, 0.1% BSA and CaCl2 2 mmol/L
Radioactive ligand: [^3H]-Ketanserin with a final concentration of around Kd value calculated by the following method
Non-specific ligand: Serotonin HCl with a final concentration of 500 μmol/L
(§3) The Kd value is calculated when the lot of cell membrane is changed. In advance, 0.5 μL of a 1 mmol/L compound for non-specific binding calculation dissolved in DMSO or DMSO is dispensed into a microplate, and the cell membrane is diluted with an Assay buffer. The radioactive ligand solution is serially diluted and the count is confirmed with a liquid scintillator. Assay buffer containing diluted cell membrane is dispensed into a microplate at 50 μL/well. Then, the radioactive ligand solution is dispensed into a microplate at 50 μL/well, and the plate is sealed. It is allowed to stand at room temperature (25° C.) for 1.5 hours. During this period, 50 mmol/L Tris-HCl (pH 7.4) is dispensed into a GF/B UniFilter plate at 50 μL/well and allowed to stand at 4° C. for 1 hour or longer. After that, filtration is performed with Cell harvester (PerkinElmer). The radioactive ligand solution is dispensed into an empty well of the GF/B UniFilter plate at 10 μL/well. After the GF/B UniFilter plate is dried at room temperature, MicroScinti 20 is dispensed into the GF/B UniFilter plate at 50 μL/well to seal the plate. The GF/B UniFilter plate is allowed to stand overnight at room temperature. The radioactivity of [^3H]-Ketanserin bound to the 5-HT2A receptor is measured using Microbeta2 (PerkinElmer) at a measurement time of 1 min/well. The Saturation curve is drawn from the measured value, and the Kd value is calculated from the slope of the Scatchard Plot.
(§4) (Binding Test of the Compound According to the Present Invention)
In advance, 0.5 μL of the compound solution dissolved in DMSO is dispensed into a microplate, and the cell membrane and the hot ligand are diluted with Assay buffer, respectively. Then, the Assay buffer containing the diluted cell membrane is dispensed into a microplate at 50 μL/well. Then, the radioactive ligand solution is dispensed into a microplate at 50 μL/well, and the plate is sealed. Then, it is allowed to stand at room temperature (25° C.) for 1.5 hours. During this period, 50 mmol/L Tris-HCl (pH 7.4) is dispensed into a GF/B UniFilter plate at 50 μL/well and allowed to stand at 4° C. for 1 hour or longer. After that, filtration is performed with Cell harvester (PerkinElmer). After the GF/B UniFilter plate is dried at room temperature, MicroScinti 20 is dispensed into the GF/B UniFilter plate at 50 μL/well to seal the plate. The GF/B UniFilter plate is allowed to stand overnight at room temperature. The radioactivity of [^3H]-Ketanserin bound to the 5-HT2A receptor is measured using Microbeta2 (PerkinElmer) at a measurement time of 1 min/well. The non-specific binding is calculated from the radioactivity of [^3H]-Ketanserin in the presence of 500 μmol/L Serotonin HCl which is the unlabeled ligand, and the total binding is calculated from the radioactivity of [^3H]-Ketanserin in the absence of the compound according to the present invention (Vehicle). Finally, the Ki value is calculated from the dose-response curve.
(§5) (The binding activity of the compound according to the present invention is calculated from the following binding inhibition rate (%).)
(§6) [formula] • a; mean cpm of non-specific binding • b; average cpm of total binding • c; cpm in the presence of the test compound

The target of assay [2] is human recombinant 5-HT2C receptor (Homo sapiens (Human), UniProt P28335). The assay is described as follows: 5-HT2C receptor binding inhibition test ([3H]-Mesulergine). Conditions: Jump-In HEK cell membrane, 37° C. 2 hours. The protocol:
Test Example 2: 5-HT2C Receptor Binding Inhibition Test
as §1
Cell membrane: 0.5 μg of Jump-In HEK cell membrane (expressing human recombinant 5-HT2C receptor) per well
as §2
Radioactive ligand: [^3H]-Mesulergine with a final concentration of around Kd value calculated by the following method
Non-specific ligand: Serotonin HCl with a final concentration of […]
as §3, with “37° C.” for “room temperature (25° C.)”, “2” for “1.5”, “[^3H]-Mesulergine” for “[^3H]-Ketanserin”, “5-HT2C” for “5-HT2A”
as §4
In advance, 0.5 μL of the compound solution dissolved in DMSO is dispensed into a microplate, and the cell membrane and the hot ligand are diluted with Assay buffer, respectively. Then, the Assay buffer containing the diluted cell membrane is dispensed into a microplate at 50 μL/well. Then, the radioactive ligand solution is dispensed into a microplate at 50 μL/well, and the plate is sealed. Then, it is allowed to stand at 37° C. for 2 hours. During this period, 50 mmol/L Tris-HCl (pH 7.4) is dispensed into a GF/B UniFilter plate at 50 μL/well and allowed to stand at 4° C. for 1 hour or longer. After that, filtration is performed with Cell harvester (PerkinElmer). After the GF/B UniFilter plate is dried at room temperature, MicroScinti 20 is dispensed into the GF/B UniFilter plate at 50 μL/well, and the plate is sealed. The GF/B UniFilter plate is allowed to stand overnight at room temperature. The radioactivity of [^3H]-Mesulergine bound to the 5-HT2C receptor is measured using Microbeta2 (PerkinElmer) at a measurement time of 1 min/well. The non-specific binding is calculated from the radioactivity of […] in the presence of 500 μmol/L Serotonin HCl which is the unlabeled ligand, and the total binding is calculated from the radioactivity of [^3H]-Mesulergine in the absence of the compound according to the present invention (Vehicle). Finally, the Ki value is calculated from the dose-response curve.
as §5, §6

Setting [3] is: read-out: human serotonin 5-HT2A receptor binding activity Ki.
Setting [4] is: read-out: human serotonin 5-HT2C receptor binding activity Ki.

Sequence of human recombinant 5-HT2A receptor (P28223 whole entry): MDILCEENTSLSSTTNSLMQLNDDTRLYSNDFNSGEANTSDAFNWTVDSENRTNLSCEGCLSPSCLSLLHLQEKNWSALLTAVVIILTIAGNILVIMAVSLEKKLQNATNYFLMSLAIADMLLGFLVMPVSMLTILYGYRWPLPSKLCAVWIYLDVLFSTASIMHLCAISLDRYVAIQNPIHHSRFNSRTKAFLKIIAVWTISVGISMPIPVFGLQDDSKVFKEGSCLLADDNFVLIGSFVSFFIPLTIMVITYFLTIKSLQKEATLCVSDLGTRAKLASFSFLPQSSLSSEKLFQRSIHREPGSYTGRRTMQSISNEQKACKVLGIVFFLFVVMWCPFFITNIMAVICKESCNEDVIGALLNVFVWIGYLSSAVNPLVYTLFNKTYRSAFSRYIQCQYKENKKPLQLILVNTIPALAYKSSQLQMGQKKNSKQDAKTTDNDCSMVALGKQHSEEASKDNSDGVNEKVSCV
Sequence of human recombinant 5-HT2C receptor (P28335 33-458): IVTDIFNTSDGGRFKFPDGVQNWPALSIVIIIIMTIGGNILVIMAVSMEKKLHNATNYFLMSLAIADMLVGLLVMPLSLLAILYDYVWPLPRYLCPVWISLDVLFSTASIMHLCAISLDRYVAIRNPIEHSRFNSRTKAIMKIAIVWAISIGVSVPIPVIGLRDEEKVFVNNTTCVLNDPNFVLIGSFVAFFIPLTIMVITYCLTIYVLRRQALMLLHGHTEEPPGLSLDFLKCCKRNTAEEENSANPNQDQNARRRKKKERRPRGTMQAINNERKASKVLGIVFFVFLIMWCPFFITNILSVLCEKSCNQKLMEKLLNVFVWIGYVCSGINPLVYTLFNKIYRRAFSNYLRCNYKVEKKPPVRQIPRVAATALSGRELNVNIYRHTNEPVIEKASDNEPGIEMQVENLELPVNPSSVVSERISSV

For the compound `Cc1nc(CN(Cc2ccc(OCC(F)(F)F)cc2)C2=NOC3(CCN(C)CC3)N2)co1` [Compound I-047], the pKi in assay [1] (read-out: h-5-HT2A Ki) and in assay [2] (read-out: h-5-HT2C Ki) was over 8.00 each time.
Regarding `Cc1nc(CN(Cc2ccc(OCC(C)C)cc2)C2=NOC3(CCNCC3)N2)co1` [Compound I-048], the pKi in assay [1] (read-out: h-5-HT2A Ki) and in assay [2] (read-out: h-5-HT2C Ki) was over 8.00 throughout.
`CC(C)COc1ccc(CN(Cc2coc(C3CC3)n2)C2=NOC3(CCN(C)CC3)N2)cc1` [Compound I-049]: the pKi was 9.02 in assay [1] (setting [3]) and 9.28 in assay [2] (setting [4]).
For `CC(C)COc1ccc(CN(Cc2coc(C(F)F)n2)C2=NOC3(CCN(C)CC3)N2)cc1` [Compound I-050], the pKi in assay [1] (read-out: h-5-HT2A Ki) and in assay [2] (read-out: h-5-HT2C Ki) was over 8.00 each time.
For `Cc1nc(CN(Cc2ccc(OCC(C)C)cc2)C2=NC3(CCNCC3)ON2C)co1` [Compound I-051], the pKi in assay [1] (read-out: h-5-HT2A Ki) and in assay [2] (read-out: h-5-HT2C Ki) was 6.30 to 7.00 throughout.
Turning to `Cc1nc(CN(Cc2ccc(OCC(C)C)cc2)C2=NC3(CCN(C)CC3)ON2C)co1` [Compound I-052], the pKi in assay [1] (read-out: h-5-HT2A Ki) and in assay [2] (read-out: h-5-HT2C Ki) was 6.30 to 7.00 each time.
Regarding `Cc1ncc(CN(Cc2ccc(OCC(C)C)cc2)C2=NOC3(CCN(C)CC3)N2)o1` [Compound I-053], the pKi in assay [1] (read-out: h-5-HT2A Ki) and in assay [2] (read-out: h-5-HT2C Ki) was over 8.00 each time.
As for `Cc1coc(CN(Cc2ccc(OCC(C)C)cc2)C2=NOC3(CCN(C)CC3)N2)n1` [Compound I-054], the figures for the pKi in assay [1] (read-out: h-5-HT2A Ki) and in assay [2] (read-out: h-5-HT2C Ki) were over 8.00 and 7.00 to 8.00, respectively.
The like results for `CC(C)COc1ccc(CN(Cc2ccc(F)cc2)C2=NOC3(CCN(C)CC3)N2)cc1` [Compound I-055] were, in that order, over 8.00 and 7.00 to 8.00.
As to `Cc1nc(CN(Cc2ccc(OCC(C)C)cc2)C2=NC(=O)C3(CCN(C)CC3)N2)cs1` [Compound I-057], the results for the pKi in assay [1] (setting [3]) and in assay [2] (setting [4]) were 8.28 and 8.66, respectively.
As for `Cc1cc(CN(Cc2ccc(OCC(C)C)cc2)C2=NC(=O)C3(CCN(C)CC3)N2)nn1C` [Compound I-058], the pKi in assay [1] (read-out: h-5-HT2A Ki) was 7.00 to 8.00; in assay [2] (read-out: h-5-HT2C Ki), 6.30 to 7.00.
As to `Cc1cnc(CN(Cc2ccc(OCC(C)C)cc2)C2=NC(=O)C3(CCN(C)CC3)N2)nc1` [Compound I-061], the pKi in assay [1] (read-out: h-5-HT2A Ki) and in assay [2] (read-out: h-5-HT2C Ki) was 7.00 to 8.00 in each case.
For `Cc1ccc(CN(Cc2ccc(OCC(C)C)cc2)C2=NC(=O)C3(CCN(C)CC3)N2)nc1` [Compound I-062], the pKi in assay [1] (read-out: h-5-HT2A Ki) is over 8.00; in assay [2] (read-out: h-5-HT2C Ki), 7.00 to 8.00.
As to `CC(C)COc1ccc(CN(Cc2ccco2)C2=NC(=O)C3(CCN(C)CC3)N2)cc1` [Compound I-063], the pKi in assay [1] (read-out: h-5-HT2A Ki) was over 8.00; in assay [2] (read-out: h-5-HT2C Ki), 7.00 to 8.00.
The like results for `Cc1nc(CN(Cc2ccc(OCC(F)(F)C(F)F)cc2)C2=NOC3(CCN(C)CC3)N2)co1` [Compound I-064] were, in that order, over 8.00 and over 8.00.
Regarding `Cc1nc(CN(Cc2ccc(OCC(C)(F)F)cc2)C2=NOC3(CCN(C)CC3)N2)co1` [Compound I-065], the negative-log Ki (pKi) in assay [1] (read-out: h-5-HT2A Ki) and in assay [2] (read-out: h-5-HT2C Ki) was over 8.00 each time.
Take `Cc1nc(CN(Cc2ccc(OCC(F)F)cc2)C2=NOC3(CCN(C)CC3)N2)co1` [Compound I-066]: the pKi in assay [1] (read-out: h-5-HT2A Ki) and in assay [2] (read-out: h-5-HT2C Ki) was over 8.00 throughout.
On to `CCc1nc(CN(Cc2ccc(OCC(C)C)cc2)C2=NOC3(CCN(C)CC3)N2)co1` [Compound I-068], for which the pKi in assay [1] (read-out: h-5-HT2A Ki) and in assay [2] (read-out: h-5-HT2C Ki) was over 8.00 throughout.
`Cc1nc(CN(Cc2cccs2)C2=NOC3(CCN(C)CC3)N2)co1` [Compound I-069]: the pKi in assay [1] (read-out: h-5-HT2A Ki) was 7.00 to 8.00; in assay [2] (read-out: h-5-HT2C Ki), over 8.00.
Take `Cc1cc(CN(Cc2ccc(OCC(C)C)cc2)C2=NOC3(CCN(C)CC3)N2)co1` [Compound I-070]: the pKi in assay [1] (read-out: h-5-HT2A Ki) and in assay [2] (read-out: h-5-HT2C Ki) was over 8.00 each time.
With `CC(C)COc1ccc(CN(Cc2cnn(C)n2)C2=NOC3(CCN(C)CC3)N2)cc1` [Compound I-072], the pKi in assay [1] (read-out: h-5-HT2A Ki) and in assay [2] (read-out: h-5-HT2C Ki) was over 8.00 throughout.
As for `Cc1nc(CN(Cc2ccsc2)C2=NOC3(CCN(C)CC3)N2)co1` [Compound I-073], the pKi in assay [1] (read-out: h-5-HT2A Ki) is 7.00 to 8.00; in assay [2] (read-out: h-5-HT2C Ki), over 8.00.
As to `Cc1cc(CN(Cc2ccc(OCC(C)C)cc2)C2=NOC3(CCN(C)CC3)N2)no1` [Compound I-075], the values for the pKi in assay [1] (read-out: h-5-HT2A Ki) and in assay [2] (read-out: h-5-HT2C Ki) were over 8.00 and 6.30 to 7.00, respectively.
For `Cc1cc(CN(Cc2ccc(OCC(C)C)cc2)C2=NOC3(CCN(C)CC3)N2)on1` [Compound I-076] the same measures were 7.00 to 8.00 and 6.30 to 7.00.
The like results for `CCCCc1ccc(CN(Cc2coc(C)n2)C2=NOC3(CCN(C)CC3)N2)cc1` [Compound I-077] were, in that order, over 8.00 and over 8.00.
The like results for `Cc1ccc(CN(Cc2ccc(OCC(C)C)cc2)C2=NOC3(CCNCC3)N2)cn1` [Compound I-078] were, in that order, over 8.00 and 6.30 to 7.00.
`Cc1nc(CN(Cc2ccc(OCC3CC3)cc2)C2=NOC3(CCN(C)CC3)N2)co1` [Compound I-079]: the pKi in assay [1] (read-out: h-5-HT2A Ki) and in assay [2] (read-out: h-5-HT2C Ki) was over 8.00 in each case.
For the compound `Cc1ccc(CN(Cc2ccc(OCC(C)C)cc2)C2=NOC3(CCN(C)CC3)N2)cn1` [Compound I-081], the pKi in assay [1] (read-out: h-5-HT2A Ki) is over 8.00; in assay [2] (read-out: h-5-HT2C Ki), 6.30 to 7.00.
The like results for `Cc1nc(CN(Cc2ccc(OCC(F)(F)C(F)(F)F)cc2)C2=NOC3(CCN(C)CC3)N2)co1` [Compound I-082] were, in that order, over 8.00 and over 8.00.
